Our source for the IC50 values is patent US20240109891A1, “NOVEL SUBSTITUTED TRICYCLIC AZA-HETEROCYCLES AS SOS1 INHIBITORS” (Viva Star Biosciences (Suzhou) Co., Ltd., priority 2021, published 2024).

Assay [1] addresses T1, KRAS G12C and SOS1 proteins (Homo sapiens, UniProt Q07889).
T1 construct: purchased Cisbio 63ADK000CB16PEG
T1 sequence (Q07889 1-1333): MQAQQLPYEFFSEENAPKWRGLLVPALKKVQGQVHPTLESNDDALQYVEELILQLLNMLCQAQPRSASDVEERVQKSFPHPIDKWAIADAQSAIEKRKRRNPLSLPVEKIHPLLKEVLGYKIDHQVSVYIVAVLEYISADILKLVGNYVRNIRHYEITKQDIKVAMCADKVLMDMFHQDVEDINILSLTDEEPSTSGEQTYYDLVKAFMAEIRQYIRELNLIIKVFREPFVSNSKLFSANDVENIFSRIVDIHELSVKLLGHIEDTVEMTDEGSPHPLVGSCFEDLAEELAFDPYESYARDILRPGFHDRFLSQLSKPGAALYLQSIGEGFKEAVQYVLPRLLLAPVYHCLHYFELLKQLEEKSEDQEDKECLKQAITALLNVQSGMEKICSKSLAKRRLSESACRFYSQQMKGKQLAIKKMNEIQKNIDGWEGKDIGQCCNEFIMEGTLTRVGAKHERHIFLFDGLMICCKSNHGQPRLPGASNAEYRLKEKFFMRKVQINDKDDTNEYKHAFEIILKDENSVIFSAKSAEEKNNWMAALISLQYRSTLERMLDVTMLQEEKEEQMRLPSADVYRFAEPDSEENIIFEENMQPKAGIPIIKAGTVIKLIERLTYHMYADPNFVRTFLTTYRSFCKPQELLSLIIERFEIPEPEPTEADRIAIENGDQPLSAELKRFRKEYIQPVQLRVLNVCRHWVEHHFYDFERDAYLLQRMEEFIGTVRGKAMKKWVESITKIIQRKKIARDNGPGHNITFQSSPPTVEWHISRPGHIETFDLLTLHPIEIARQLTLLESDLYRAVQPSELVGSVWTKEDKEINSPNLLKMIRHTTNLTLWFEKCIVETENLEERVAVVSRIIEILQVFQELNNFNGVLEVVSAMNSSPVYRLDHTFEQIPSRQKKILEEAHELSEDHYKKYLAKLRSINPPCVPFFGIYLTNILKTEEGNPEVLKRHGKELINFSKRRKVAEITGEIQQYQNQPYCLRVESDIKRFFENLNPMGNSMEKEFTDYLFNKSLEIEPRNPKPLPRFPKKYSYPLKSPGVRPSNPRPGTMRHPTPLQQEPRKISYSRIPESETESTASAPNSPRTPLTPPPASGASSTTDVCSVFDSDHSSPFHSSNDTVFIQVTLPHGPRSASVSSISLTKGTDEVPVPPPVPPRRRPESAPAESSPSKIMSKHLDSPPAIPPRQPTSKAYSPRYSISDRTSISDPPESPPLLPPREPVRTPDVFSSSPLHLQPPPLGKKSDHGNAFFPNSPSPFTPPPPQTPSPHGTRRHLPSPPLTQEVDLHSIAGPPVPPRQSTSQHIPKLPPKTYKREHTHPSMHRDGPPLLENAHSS
Nature of the assay: KRAS-G12C/SOS1 binding assay (HTRF). To be noted: Tag1-SOS1 / Tag2-KRAS G12C, 10 μM GTP. How it is done:
KRAS-WT (or G12C/G12D/G12V)/SOS1 Binding Assay
Low IC50 values are indicative of high potency of the SOS1 inhibitor compounds in this assay setting.
The KRAS-WT (or G12C/G12D/G12V)/SOS1 binding assay is performed using an assay kit (Cisbio, Cat #63ADK000CB15PEG or 63ADK000CB16PEG/63ADK000CB17PEG/63ADK000CB18PEG) according to the procedure recommended by the manufacturer. • 1) Thaw and prepare the working solution of Tag1-SOS1 protein and Tag2-KRAS-WT (or G12C/G12D/G12V) protein with final concentration of 10 μM GTP (Sigma, Cat #V900868). • 2) Thaw and prepare the working solution of anti-Tag1-Tb^3+ anti-Tag2-XL665. • 3) Dispense 2 μL of serially diluted compound, 4 μL of Tag1-SOS1 protein and 4 μL of Tag2-KRAS-WT (or G12C/G12D/G12V) protein with GTP into a ProxiPlate-384 Plus, white 384-shallow well microplate (PerkinElmer, Cat #6008280). • 4) Incubate the plate for 15 minutes at room temperature. • 5) Dispense 10 μL of pre-mixed anti-Tag1-Tb^3+ and anti-Tag2-XL665 into the plate. • 6) Seal the plate and incubate for 2 hours at room temperature. • 7) Remove the plate sealer and read on PHERAstar FS (BMG LABTECH, PHERAstar FS). • 8) Calculate the ratio of the acceptor and donor emission signals for each individual well using the following equation.
[formula] • 9) IC50 values are fitted and calculated by HTRF signal values and log of compound concentrations to nonlinear regression [Log (inhibitor) vs. Response−Variable Slope (four parameters)] using the GraphPad Prism 8.0.

The target in assay [2] is T2, KRAS G12D and SOS1 proteins (Homo sapiens, UniProt Q07889).
T2 construct: purchased Cisbio 63ADK000CB17PEG
T2 sequence (Q07889 1-1333): T1 sequence (Q07889 1-1333)
The experiment in a line: KRAS-G12D/SOS1 binding assay (HTRF). The settings on record: Tag1-SOS1 / Tag2-KRAS G12D, 10 μM GTP.

For assay [3], the target named is T3, KRAS-WT and SOS1 proteins (Homo sapiens, UniProt Q07889).
T3 construct: purchased Cisbio 63ADK000CB15PEG
T3 sequence (Q07889 1-1333): T1 sequence (Q07889 1-1333)
The experiment in a line: KRAS-WT/SOS1 binding assay (HTRF). The settings on record: Tag1-SOS1 / Tag2-KRAS-WT, 10 μM GTP, read-out: Activity Data in Kras: SOS1 Assay, Wild Type.

Turning to `Cc1nc(N[C@H](C)c2cccc(C(F)F)c2F)c2cc(-c3ccc(=O)n(C)c3)c3nncn3c2n1` [Example 4, (R)-5-(4-((1-(3-(difluoromethyl)-2-fluorophenyl)ethyl)amino)-2-methyl-[1,2,4]triazolo[4′,3′:1,6]pyrido[2,3-d]pyrimidin-6-yl)-1-methylpyridin-2(1H)-one], in assay [1], the IC50 is less than 0.1 µM.
As for `CC(=O)N1CCC(c2cc3c(N[C@H](C)c4cccc(C(F)(F)CO)c4)nc(C)nc3n3cnnc23)CC1` [Example 12, (R)-1-(4-(4-((1-(3-(1,1-difluoro-2-hydroxyethyl)phenyl)ethyl)amino)-2-methyl-[1,2,4]triazolo[4′,3′:1,6]pyrido[2,3-d]pyrimidin-6-yl)piperidin-1-yl)ethan-1-one], the IC50 in assay [2] and in assay [3] was less than 0.1 µM in each case.
For the molecule `CC(=O)N1CCC(c2cc3c(N[C@H](C)c4cccc5c4CCC5(F)F)nc(C)nc3n3cnnc23)CC1` [Example 7, (R)-1-(4-(4-((1-(1,1-difluoro-2,3-dihydro-1H-inden-4-yl)ethyl)amino)-2-methyl-[1,2,4]triazolo[4′,3′:1,6]pyrido[2,3-d]pyrimidin-6-yl)piperidin-1-yl)ethanone], the IC50 in assay [2] and in assay [3] was less than 0.1 µM in each case.
Take `C[C@@H](Nc1nc2ccnn2c2cc(=O)n(C3(C)CC3)cc12)c1cccc(C(C)(F)F)c1F` [Example 64, (R)-5-((1-(3-(1,1-difluoroethyl)-2-fluorophenyl)ethyl)amino)-7-(1-methylcyclopropyl)pyrazolo[1,5-a]pyrido[3,4-e]pyrimidin-8(7H)-one]: the IC50 in assay [2] and in assay [3] was less than 0.1 µM in each case.
As for `Cc1nc(N[C@H](C)c2cccc(C(F)(F)CO)c2)c2cc(C3CCN(C)CC3)c3c(cnn3C)c2n1` [Example 30, (R)-2-(3-(1-((2,7-dimethyl-6-(1-methylpiperidin-4-y1)-7H-pyrazolo[3,4-h]quinazolin-4-yl)amino)ethyl)phenyl)-2,2-difluoroethan-1-ol], the IC50 in assay [2] and in assay [3] was less than 0.1 µM in each case.
With `COc1cc2c(cc1C1CCN(S(C)(=O)=O)CC1)c(N[C@H](C)c1cccc3c1CCC3(F)F)nc1ccnn12` [Example 53, (R)-N-(1-(1,1-difluoro-2,3-dihydro-1H-inden-4-yl)ethyl)-8-methoxy-7-(1-(methylsulfonyl)piperidin-4-yl)pyrazolo[1,5-a]quinazolin-5-amine], the IC50 in assay [2] and in assay [3] was 0.1 to 0.5 µM throughout.
With `Cc1nc(N[C@H](C)c2cccc(C(F)(F)CO)c2)c2cc(O[C@H]3CCN(C)C3)c3c(cnn3C)c2n1` [Example 41, 2-(3-((R)-1-((2,7-dimethyl-6-(((S)-1-methylpyrrolidin-3-yl)oxy)-7H-pyrazolo[3,4-h]quinazolin-4-yl)amino)ethyl)phenyl)-2,2-difluoroethan-1-ol], the IC50 in assay [2] and in assay [3] was less than 0.1 µM throughout.
As for `C[C@@H](Nc1nc(C(F)(F)F)nc2c1cc(-c1ccc(=O)n(C)c1)c1c2cnn1C)c1cc(F)cc(C(F)(F)CO)c1` [Example 33, (R)-5-(4-((1-(3-(1,1-difluoro-2-hydroxyethyl)-5-fluorophenyl)ethyl)amino)-7-methyl-2-(trifluoromethyl)-7H-pyrazolo[3,4-h]quinazolin-6-yl)-1-methylpyridin-2(1H)-one], the IC50 in assay [2] and in assay [3] was 0.1 to 0.5 µM throughout.
For the molecule `C[C@@H](Nc1nc2ccnn2c2cc(=O)n(C3CCN(C)CC3)cc12)c1cccc(C(F)(F)CO)c1` [Example 76, (R)-5-((1-(3-(1,1-difluoro-2-hydroxyethyl)phenyl)ethyl)amino)-7-(1-methylpiperidin-4-yl)pyrazolo[1,5-a]pyrido[3,4-e]pyrimidin-8(7H)-one], the IC50 in assay [2] and in assay [3] was less than 0.1 µM throughout.
Regarding `Cc1nc(N[C@H](C)c2cccc(C(F)(F)CO)c2)c2cc(OC3CC(F)(F)C3)c3c(cnn3C)c2n1` [Example 39, (R)-2-(3-(1-((6-(3,3-difluorocyclobutoxy)-2,7-dimethyl-7H-pyrazolo[3,4-h]quinazolin-4-yl)amino)ethyl)phenyl)-2,2-difluoroethan-1-ol], the IC50 in assay [2] and in assay [3] was 0.1 to 0.5 µM each time.
Regarding `Cc1nc(N[C@H](C)c2cccc(C(F)(F)CO)c2)c2cc(-c3ccc(=O)[nH]c3)c3[nH]ncc3c2n1` [Example 28, (R)-5-(4-((1-(3-(1,1-difluoro-2-hydroxyethyl)phenyl)ethyl)amino)-2-methyl-7H-pyrazolo[3,4-h]quinazolin-6-yl)pyridin-2(1H)-one], the IC50 in assay [2] and in assay [3] was less than 0.1 µM throughout.
`C[C@@H](Nc1nc(C(F)(F)F)nc2c1cc(-c1ccc(=O)n(C)c1)c1c2cnn1C)c1cccc(C(F)(F)CO)c1` [Example 32, (R)-5-(4-((1-(3-(1,1-difluoro-2-hydroxyethyl)phenyl)ethyl)amino)-7-methyl-2-(trifluoromethyl)-7H-pyrazolo[3,4-h]quinazolin-6-yl)-1-methylpyridin-2(1H)-one]: the IC50 in assay [2] and in assay [3] was 0.1 to 0.5 µM each time.
On to `C[C@@H](Nc1nc2ccnn2c2cc(=O)n([C@H]3CCOC3)cc12)c1cccc(C(F)(F)F)c1` [Example 69, 7-((S)-tetrahydrofuran-3-yl)-5-(((R)-1-(3-(trifluoromethyl)phenyl)ethyl)amino)pyrazolo[1,5-a]pyrido[3,4-e]pyrimidin-8(7H)-one], for which the IC50 in assay [2] and in assay [3] was 0.1 to 0.5 µM throughout.
As for `C[C@@H](Nc1nc2c(F)cnn2c2cc(=O)n(C3CC(F)(F)C3)cc12)c1cccc(C(F)(F)CO)c1` [Example 78, (R)-5-((1-(3-(1,1-difluoro-2-hydroxyethyl)phenyl)ethyl)amino)-7-(3,3-difluorocyclobutyl)-3-fluoropyrazolo[1,5-a]pyrido[3,4-e]pyrimidin-8(7H)-one], the IC50 in assay [2] and in assay [3] was less than 0.1 µM in each case.
`Cc1nc(N[C@H](C)c2cccc(C(F)(F)CO)c2)c2cc(N3CCC(O)C3)c3c(cnn3C)c2n1` (stereo partly drawn) [Example 42, 1-(4-{[(1R)-1-[3-(1,1-difluoro-2-hydroxyethyl)phenyl]ethyl]amino}-2,7-dimethyl-7H-pyrazolo[3,4-h]quinazolin-6-y)pyrrolidin-3-ol]: the IC50 in assay [2] and in assay [3] was less than 0.1 µM in each case.
Consider `COc1cc2c(cc1O[C@H]1CCOC1)c(N[C@H](C)c1cc(N)cc(C(F)(F)F)c1)nc1ccnn12` [Example 55, N-[(1R)-1-[3-amino-5-(trifluoromethyl)phenyl]ethyl]-8-methoxy-7-[(3S)-oxolan-3-yloxy]pyrazolo[1,5-a]quinazolin-5-amine], for which the IC50 in assay [2] and in assay [3] was 0.1 to 0.5 µM each time.
